Our source for the ring closure, yield after HPLC and ring closure, isolated yield values is patent US20140135270A1, “MACROCYCLIC COMPOUNDS FOR INHIBITION OF INHIBITORS OF APOPTOSIS” (Ensemble Therapeutics Corp., priority 2012, published 2014).

The conditions of data set [1]: the molecule shown is the open-chain precursor, rcm bond, 38-membered ring, DCE, 70.0 °C.
For data set [2] the following is noted: the molecule shown is the open-chain precursor, rcm bond.

Like-named read-outs stand apart in the source and are kept apart here.

For “(S)-tert-Butyl 2-((S)-2-((2S,4S)-4-(4-((4-((S)-2-((S)-2-((2S,4S)-4-allyl-1-((S)-2-((S)-2-((tert-butoxycarbonyl)(methyl)amino)propanamido)-3,3-dimethylbutanoyl)pyrrolidine-2-carboxamido)-3-(naphthalen-2-yl)propanamido)-3-(cyclopropanesulfonamido)-3-oxopropyl)phenoxy)methyl)-1H-1,2,3-triazol-1-yl)-1-((S)-2-((S)-2-((tert-butoxycarbonyl)(methyl)amino)propanamido)-3,3-dimethylbutanoyl)pyrrolidine-2-carboxamido)-3-(naphthalen-2-yl)propanamido)-3-(4-(allyloxy)phenyl)propanoate”, in data set [1] (Hoveyda-Grubbs II (10 mol%), 3.5 mM), the ring closure, yield after HPLC amounted to 75%.
Regarding “(S)-tert-Butyl 2-((S)-2-((2S,4S)-4-allyl-1-((S)-2-((S)-2-((tert-butoxycarbonyl)(methyl)amino)propanamido)-3,3-dimethylbutanoyl)pyrrolidine-2-carboxamido)-3-(naphthalen-2-yl)propanamido)-3-(4-((1-((3S,5S)-5-(((S)-1-(((S)-2-(4-(allyloxy)phenyl)-1-(5-oxo-4,5-dihydro-1,3,4-oxadiazol-2-yl)ethyl)amino)-3-(naphthalen-2-yl)-1-oxopropan-2-yl)carbamoyl)-1-((S)-2-((S)-2-((tert-butoxycarbonyl)(methyl)amino)propanamido)-3,3-dimethylbutanoyl)pyrrolidin-3-yl)-1H-1,2,3-triazol-4-yl)methoxy)phenyl)propanoate”, the ring closure, yield after HPLC in data set [1] (Hoveyda-Grubbs II (10 mol%), 5.2 mM) is 52%.
With “(S)-2-((S)-2-((2S,4S)-4-(4-((4-((S)-2-((S)-2-((2S,4S)-4-Allyl-1-((S)-2-4S)-2-((tert-butoxycarbonyl)(methyl)amino)propanamido)-3,3-dimethylbutanoyl)pyrrolidine-2-carboxamido)-3-(naphthalen-2-yl)propanamido)-3-(methylsulfonamido)-3-oxopropyl)phenoxy)methyl)-1H-1,2,3-triazol-1-yl)-1-((S)-2-((S)-2-((tert-butoxycarbonyl)(methyl)amino)propanamido)-3,3-dimethylbutanoyl)pyrrolidine-2-carboxamido)-3-(naphthalen-2-yl)propanamido)-3-(4-(allyloxy)phenyl)propanoic acid”, in data set [1] (Grubbs II (2 portions), 2.9 mM), the ring closure, yield after HPLC was found to be 49%.
On to “(S)-Methyl 2-((S)-2-((2S,4S)-4-allyl-1-((S)-2-((S)-2-((tert-butoxycarbonyl)(methyl)amino)propanamido)-3,3-dimethylbutanoyl)pyrrolidine-2-carboxamido)-3-(naphthalen-2-yl)propanamido)-3-(4-(((E)-4-((3S,5S)-5-(((S)-1-(((S)-3-(4-(allyloxy)phenyl)-1-(cyclopropanesulfonamido)-1-oxopropan-2-yl)amino)-3-(naphthalen-2-yl)-1-oxopropan-2-yl)carbamoyl)-1-((S)-2-((S)-2-((tert-butoxycarbonyl)(methyl)amino)propanamido)-3,3-dimethylbutanoyl)pyrrolidin-3-yl)but-2-en-1-yl)oxy)phenyl)propanoate”, for which the ring closure, isolated yield in data set [2] (38-membered ring, Grubbs I (2 portions), DCE, 1.1 mM, 55.0 °C) is 64%.
“(S)-tert-butyl 2-((S)-2-((2S,4S)-4-((5-((4-((S)-2-((S)-2-((2S,4S)-4-allyl-1-((S)-2-((S)-2-((tert-butoxycarbonyl)(methyl)amino)propanamido)-3,3-dimethylbutanoyl)pyrrolidine-2-carboxamido)-3-(naphthalen-2-yl)propanamido)-3-(cyclopropanesulfonamido)-3-oxopropyl)phenoxy)methyl)-1H-1,2,3-triazol-1-yl)-1-((S)-2-((S)-2-((tert-butoxycarbonyl)(methyl)amino)propanamido)-3,3-dimethylbutanoyl)pyrrolidine-2-carboxamido)-3-(naphthalen-2-yl)propanamido)-3-(4-(allyloxy)phenyl)propanoate”: the ring closure, isolated yield in data set [2] (37-membered ring, 2 steps) is 2%.
For the substance “(S)-tert-Butyl 2-((S)-2-((2S,4S)-4-allyl-1-((S)-2-((S)-2-((tert-butoxycarbonyl)(methyl)amino)propanamido)-3,3-dimethylbutanoyl)pyrrolidine-2-carboxamido)-3-(naphthalen-2-yl)propanamido)-3-(4-((1-((3R,5S)-5-(((S)-1-(((S)-2-(4-(allyloxy)phenyl)-1-(1-trityl-1H-tetrazol-5-yl)ethyl)amino)-3-(naphthalen-2-yl)-1-oxopropan-2-yl)carbamoyl)-1-((S)-2-((S)-2-((tert-butoxycarbonyl)(methyl)amino)propanamido)-3,3-dimethylbutanoyl)pyrrolidin-3-yl)-1H-1,2,3-triazol-4-yl)methoxy)phenyl)propanoate”, in data set [2] (38-membered ring, Hoveyda-Grubbs II (2 portions), DCE, 2.34 mM, 70.0 °C), the ring closure, isolated yield came out at 48%.
